# Assay results from US20120196057A1 (priority 2008, published 2012).
# Entries after “also recorded” stand apart in the source; their conditions may differ.
# Columns and labels:
# gastrocnemius muscle = test: Gene chip analysis in hindlimb unloading (tail suspension) skeletal muscle atrophy model; type: in vivo, BalbC mice; conditions: for Differentially expressed probe sets for genes between HU and HU + treatment group: 50 μg/kg/bw (combo 50+50) by gavage twice, 7 days hindlimb unloading, Affymetrix Mouse 430-2; for Expression of Myosin, light chain kinase (Mylk) / Expression of Tropomyosin 1 (Tpm1) / Expression of Titin (Tnt) / Expression of Myomesin 1 (Myom 1) / Number of differentially expressed probe sets also differentially expressed in 25-OH D3+Vitamin D3 group / Share of differentially expressed probe sets also differentially expressed in 25-OH D3+Vitamin D3 group: gastrocnemius muscle; for Expression of Myosin, light chain kinase (Mylk): HU control 749; for Expression of Tropomyosin 1 (Tpm1): HU control 1179; for Expression of Titin (Tnt): HU control 11353; for Expression of Myomesin 1 (Myom 1): HU control 84697; for Differentially expressed muscle genes compared to HU: selected skeletal muscle genes, list wrapped over table lines; for Number of differentially expressed probe sets also differentially expressed in 25-OH D3+Vitamin D3 group / Share of differentially expressed probe sets also differentially expressed in 25-OH D3+Vitamin D3 group: vs HU control
# Excerpt: Initially this model was established in rats for simulating spaceflight in humans and is commonly used in other scientific fields to study the loss of skeletal muscle mass or bone. The results are considered indicative of human conditions such as sarcopenia (degenerative loss of skeletal muscle mass and strength during the process of ageing) or immobilization of skeletal muscle (e.g. after prolonged bed rest due to fractures, surgery or trauma). Methods For our study, nine month old BalbC female mice were randomized at the beginning of the study into four groups with 10 animals per group • 1. […] The animals were placed in special cages for duration of seven days; all mice were housed separately and had free access to feed and water ad libidum. All animals were treated twice by gavage at the beginning of the experiment and 3 hours before the section: 1. the control group received vehicle (gelatine) […] At the end of the study the gastrocnemius muscle was taken out and directly frozen in liquid nitrogen for further analysis. […] Total RNA was isolated using the commonly used Trizol protocol. The RNA was quantified by using spectrophotometric analysis. The integrity of total RNA samples was also assessed qualitatively on an Agilent 2100 Bioanalyzer. RNA was then prepared for the one cycle cDNA synthesis. A poly-A RNA control is used for this step to provide exogenous positive controls to monitor the entire eukaryotic target labelling process. The first cDNA synthesis is done, and after the second strand cDNA synthesis the cDNA is cleaned up of double-stranded cDNA. A biotin labelled cRNA is then synthesised, cleaned up and quantified using a spectrophotometer at 260/280 nm. It is important that cRNA target is fragmented before hybridization onto a GeneChip probe arrays to obtain optimal assay sensitivity. After fragmentation the probes are hybridized on the chips (Affymetrix Mouse 430-2 chips). The chips are washed and stained in the fluidics station of Affymetrix and scanned in the gene chip scanner. The data is then transferred from the scanner for further analysis using software from Genedata (Expressionist 5.0: […] Analyst). Data interpretation and pathway analysis was done with the online version of the GeneGo Metacore package ([…] evaluates microarray data for quality issues and flags problematic measurements. It provides a set of normalization algorithms and validated condensing methods to automatically pre-process and summarize raw microarray data for subsequent statistical analysis.
# [1] = Clinical trial: plasma 25-OH D after single oral bolus of 25-OH D3, Vitamin D3 or both; type: in vivo, human; conditions: single oral bolus 140 μg (combo 140 μg + 140 μg)
# Excerpt: Each group included five subjects. They are followed for four months in Zurich, Switzerland during the winter.
# Equal quantities of both substances were investigated. […] As the maximum pre-existing baseline concentration of 25-OH D will be 50 nmol/L, it is not anticipated that subjects will approach the range where disturbance in Ca^2+ homeostasis has been observed.
# Each dosage is consumed orally at breakfast. The duration of the study is four months for the “Daily” and “Weekly” groups. Subjects enrolled in the “Bolus” group consume orally a single dosage at the second study visit and are further followed-up for four months.
# [2] = ingestion of 250 μg/day as a dietary supplement; cited from earlier work
Molecule,Differentially expressed probe sets for genes between HU and HU + treatment group (gastrocnemius muscle),"Expression of Myosin, light chain kinase (Mylk) (gastrocnemius muscle)",Expression of Tropomyosin 1 (Tpm1) (gastrocnemius muscle),Expression of Titin (Tnt) (gastrocnemius muscle),Expression of Myomesin 1 (Myom 1) (gastrocnemius muscle),Differentially expressed muscle genes compared to HU (gastrocnemius muscle),Number of differentially expressed probe sets also differentially expressed in 25-OH D3+Vitamin D3 group (gastrocnemius muscle),Share of differentially expressed probe sets also differentially expressed in 25-OH D3+Vitamin D3 group (gastrocnemius muscle),Time period with increase in plasma 25-OH D levels by at least 30 nmol/L [1],Blood concentration of 25-hydroxyvitamin D resulting from ingestion [2]
"C=C1CC[C@H](O)C/C1=C/C=C1\CCC[C@]2(C)[C@@H]([C@H](C)CCCC(C)(C)O)CC[C@@H]12 [25-OH D3, 25-hydroxyvitamin D3]",1263,994,2110,13786,105393,"alkali, smooth muscle and non-muscle; myosin, light; also recorded: polypeptide kinase; myotubularin related protein 2;; also recorded: myotubularin related protein 4; myotubularin related; also recorded: protein 6; tropomyosin 2, beta; X-linked myotubular; also recorded: myopathy gene 1; also recorded: Desmin; dystonin; myocyte enhancer factor 2A;; also recorded: myoneurin; myosin VIIb; myosin, light polypeptide 6,",769,~61%,4 to 49 h,
"C=C1CC[C@H](O)C/C1=C/C=C1\CCC[C@]2(C)[C@@H]([C@H](C)CCCC(C)C)CC[C@@H]12 [Vitamin D3, cholecalciferol]",385,786,2199,11354,99099,"Desmin; myoneurin; tropomyosin 1, alpha; tropomyosin 2,; also recorded: beta; X-linked myotubular myopathy gene 1",177,~46%,,
Vitamin D,,,,,,,,,no increase of that magnitude,about 200 nmol/L
